From US12577206B2 (BRISTOL-MYERS SQUIBB COMPANY, priority 2020, dated 2026)

Legend:
[1] = biological target: T1, human FPR2 (Homo sapiens, UniProt P25090); assay: FPR2 cyclic adenosine monophosphate (cAMP) assay; type: cell-based; conditions: CHO cells overexpressing human FPR2; forskolin 5 μM; inhibition of cAMP production; HTRF; read-out: hFPR2 cAMP2 EC50
T1 sequence (P25090 1-351): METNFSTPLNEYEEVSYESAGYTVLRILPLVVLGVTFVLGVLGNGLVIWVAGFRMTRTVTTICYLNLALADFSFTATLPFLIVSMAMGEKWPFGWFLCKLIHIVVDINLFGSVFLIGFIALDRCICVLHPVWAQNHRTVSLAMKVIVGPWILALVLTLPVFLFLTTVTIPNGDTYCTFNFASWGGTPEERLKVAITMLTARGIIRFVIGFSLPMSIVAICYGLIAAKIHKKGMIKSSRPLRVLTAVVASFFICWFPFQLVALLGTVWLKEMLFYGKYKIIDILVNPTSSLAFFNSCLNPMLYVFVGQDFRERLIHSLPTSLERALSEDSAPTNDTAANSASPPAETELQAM
How it was run: (§1)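 Gi-coupled activity is read as suppression of forskolin-stimulated cAMP (10 μM final for FPR1, 5 μM final for FPR2; IBMX 200 μM final) in recombinant CHO cells, 30 min incubation at rt, HTRF detection.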

[2] = biological target: T2, human FPR1 (Homo sapiens, UniProt P21462); assay: FPR1 cyclic adenosine monophosphate (cAMP) assay; type: cell-based; conditions: CHO cells overexpressing human FPR1; forskolin 10 μM; inhibition of cAMP production; HTRF; read-out: hFPR1 cAMP2 EC50
T2 sequence (P21462 1-350): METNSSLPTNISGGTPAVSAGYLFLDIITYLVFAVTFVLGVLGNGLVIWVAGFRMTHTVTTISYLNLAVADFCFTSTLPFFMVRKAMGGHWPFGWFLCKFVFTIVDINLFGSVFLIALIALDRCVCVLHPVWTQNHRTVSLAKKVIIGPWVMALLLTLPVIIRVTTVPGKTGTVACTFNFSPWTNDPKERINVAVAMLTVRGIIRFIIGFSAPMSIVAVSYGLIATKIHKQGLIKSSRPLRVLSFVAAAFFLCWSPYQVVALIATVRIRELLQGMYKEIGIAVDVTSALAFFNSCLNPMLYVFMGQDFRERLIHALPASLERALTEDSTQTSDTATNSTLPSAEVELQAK
How it was run: as §1

## COc1cc(F)c(-c2c(NC(=O)c3ccc(OC(F)F)cc3)c(=O)n(-c3nc(N4CCN(C)CC4)ccc3F)n2C)c(F)c1 [Example 219, N-[5-(2,6-difluoro-4-methoxyphenyl)-2-[3-fluoro-6-(4-methylpiperazin-1-yl)pyridin-2-yl]-1-methyl-3-oxo-2,3-dihydro-1H-pyrazol-4-yl]-4-(difluoromethoxy)benzamide]
[1]
  EC50: 10 nM
[2]
  EC50: 3200 nM

## COC(=O)c1cncc(-n2c(=O)c(NC(=O)c3ccc(OC(F)F)cc3)c(-c3c(F)cc(OC)cc3F)n2C)c1 [Example 128, methyl 5-[3-(2,6-difluoro-4-methoxyphenyl)-4-[4-(difluoromethoxy)benzamido]-2-methyl-5-oxo-2,3-dihydro-1H-pyrazol-1-yl]pyridine-3-carboxylate]
[1]
  EC50: 7 nM
[2]
  EC50: 19 nM

## COc1cc(F)c(-c2c(NC(=O)c3ccc(OC(F)F)cc3)c(=O)n(-c3cccc(OC(F)F)n3)n2C)c(F)c1 [Example 168, N-[5-(2,6-difluoro-4-methoxyphenyl)-2-[6-(difluoromethoxy)pyridin-2-yl]-1-methyl-3-oxo-2,3-dihydro-1H-pyrazol-4-yl]-4-(difluoromethoxy)benzamide]
[1]
  EC50: 12 nM
[2]
  EC50: > 10000 nM

## COc1cc(F)c(-c2c(NC(=O)c3ccc(OC(F)(F)F)cc3)c(=O)n(-c3cccc(C4CC4)n3)n2C)c(F)c1 [Example 167, N-[2-(6-cyclopropylpyridin-2-yl)-5-(2,6-difluoro-4-methoxyphenyl)-1-methyl-3-oxo-2,3-dihydro-1H-pyrazol-4-yl]-4-(trifluoromethoxy)benzamide]
[1]
  EC50: 4 nM
[2]
  EC50: 460 nM

## CCOc1cc(-n2c(=O)c(NC(=O)c3ccc(OC(F)F)cc3)c(-c3c(F)cc(OC)cc3F)n2C)cc(C(F)(F)F)c1 [Example 122, N-[5-(2,6-difluoro-4-methoxyphenyl)-2-[3-ethoxy-5-(trifluoromethyl)phenyl]-1-methyl-3-oxo-2,3-dihydro-1H-pyrazol-4-yl]-4-(difluoromethoxy)benzamide]
[1]
  EC50: 21 nM
[2]
  EC50: > 10000 nM

## COc1cc(F)c(-c2c(NC(=O)c3ccc(OC(F)F)cc3)c(=O)n(-c3nc(N4CCN(C)CC4)ccc3Cl)n2C)c(F)c1 [Example 143, N-{2-[3-chloro-6-(4-methylpiperazin-1-yl)pyridin-2-yl]-5-(2,6-difluoro-4-methoxyphenyl)-1-methyl-3-oxo-2,3-dihydro-1H-pyrazol-4-yl}-4-(difluoromethoxy)benzamide]
[1]
  EC50: 10 nM
[2]
  EC50: 3700 nM

## CC(C)Oc1cc(OCCO)nc(-n2c(=O)c(NC(=O)c3ccc(OC(F)(F)F)cc3)c(-c3c(F)cc(Cl)cc3F)n2C)c1 [Example 398, N-(5-(4-chloro-2,6-difluorophenyl)-2-(6-(2-hydroxyethoxy)-4-isopropoxypyridin-2-yl)-1-methyl-3-oxo-2,3-dihydro-1H-pyrazol-4-yl)-4-(trifluoromethoxy)benzamide]
[1]
  EC50: 24 nM
[2]
  EC50: 590 nM

## COc1cc(F)c(-c2c(NC(=O)c3ccc(OC(F)F)cc3)c(=O)n(-c3cccc(N4CCN(CCS(C)(=O)=O)CC4)n3)n2C)c(F)c1 [Example 206, N-[5-(2,6-difluoro-4-methoxyphenyl)-2-{6-[4-(2-methanesulfonylethyl)piperazin-1-yl]pyridin-2-yl}-1-methyl-3-oxo-2,3-dihydro-1H-pyrazol-4-yl]-4-(difluoromethoxy)benzamide]
[1]
  EC50: 44 nM
[2]
  EC50: > 5000 nM

## COc1cc(F)c(-c2c(NC(=O)c3ccc(OC(F)F)cc3)c(=O)n(-c3cnc4ccccc4n3)n2C)c(F)c1 [Example 64, N-[5-(2,6-difluoro-4-methoxyphenyl)-1-methyl-3-oxo-2-(quinoxalin-2-yl)-2,3-dihydro-1H-pyrazol-4-yl]-4-(difluoromethoxy)benzamide]
[1]
  EC50: 11 nM
[2]
  EC50: 800 nM

## COc1cc(F)c(-c2c(NC(=O)c3ccc(OC(F)F)cc3)c(=O)n(-c3nccc(N4CCN(C)CC4)c3C(F)(F)F)n2C)c(F)c1 [Example 224, N-[5-(2,6-difluoro-4-methoxyphenyl)-1-methyl-2-[4-(4-methylpiperazin-1-yl)-3-(trifluoromethyl)pyridin-2-yl]-3-oxo-2,3-dihydro-1H-pyrazol-4-yl]-4-(difluoromethoxy)benzamide]
[1]
  EC50: 15 nM
[2]
  EC50: > 5000 nM

## COc1cc(F)c(-c2c(NC(=O)c3ccc(OC(F)F)cc3)c(=O)n(-c3nc(NC[C@H](O)C(F)(F)F)ccc3C(F)(F)F)n2C)c(F)c1 [Example 274, N-[5-(2,6-difluoro-4-methoxyphenyl)-1-methyl-3-oxo-2-(6-{[(2S)-3,3,3-trifluoro-2-hydroxypropyl]amino}-3-(trifluoromethyl)pyridin-2-yl)-2,3-dihydro-1H-pyrazol-4-yl]-4-(difluoromethoxy)benzamide]
[1]
  EC50: 2 nM
[2]
  EC50: > 5000 nM

## COc1cc(F)c(-c2c(NC(=O)c3ccc(OC(F)F)cc3)c(=O)n(-c3cc(C(F)(F)F)ccn3)n2C)c(F)c1 [Example 62, N-[5-(2,6-difluoro-4-methoxyphenyl)-1-methyl-3-oxo-2-[4-(trifluoromethyl)pyridin-2-yl]-2,3-dihydro-1H-pyrazol-4-yl]-4-(difluoromethoxy)benzamide]
[1]
  EC50: 6 nM
[2]
  EC50: > 10000 nM

## COc1cc(OC2CCOC2)nc(-n2c(=O)c(NC(=O)c3ccc(OC(F)F)cc3)c(-c3c(F)cc(OC)cc3F)n2C)c1 (stereo not shown) [Example 355, N-(5-(2,6-Difluoro-4-methoxyphenyl)-2-(4-methoxy-6-((tetrahydrofuran-3-yl)oxy)pyridin-2-yl)-1-methyl-3-oxo-2,3-dihydro-1H-pyrazol-4-yl)-4-(difluoromethoxy)benzamide]
[1]
  EC50: 4 nM
[2]
  EC50: > 10000 nM

## COc1cc(F)c(-c2c(NC(=O)c3ccc(OC(F)F)cc3)c(=O)n(-c3cccc(C(C)O)n3)n2C)c(F)c1 (stereo not shown) [Example 86, N-[5-(2,6-difluoro-4-methoxyphenyl)-2-[6-(1-hydroxyethyl)pyridin-2-yl]-1-methyl-3-oxo-2,3-dihydro-1H-pyrazol-4-yl]-4-(difluoromethoxy)benzamide]
[1]
  EC50: 10 nM
[2]
  EC50: 1400 nM

## COc1cc(-n2c(=O)c(NC(=O)c3ccc(OC(F)F)cc3)c(-c3c(F)cc(OC)cc3F)n2C)nc(C(F)(F)F)c1 [Example 162, N-[5-(2,6-difluoro-4-methoxyphenyl)-2-[4-methoxy-6-(trifluoromethyl)pyridin-2-yl]-1-methyl-3-oxo-2,3-dihydro-1H-pyrazol-4-yl]-4-(difluoromethoxy)benzamide]
[1]
  EC50: 12 nM
[2]
  EC50: > 10000 nM

## COc1cc(F)c(-c2c(NC(=O)c3ccc(OC(F)F)cc3)c(=O)n(-c3ccc(C)cn3)n2C)c(F)c1 [Example 49, N-[5-(2,6-difluoro-4-methoxyphenyl)-1-methyl-2-(5-methylpyridin-2-yl)-3-oxo-2,3-dihydro-1H-pyrazol-4-yl]-4-(difluoromethoxy)benzamide]
[1]
  EC50: 55 nM
[2]
  EC50: 6800 nM

## CCOC(=O)Cn1c(=O)c(NC(=O)c2ccc(OC(F)F)cc2)c(-c2c(F)cc(OC)cc2F)n1C [Example 21, ethyl 2-[3-(2,6-difluoro-4-methoxyphenyl)-4-[4-(difluoromethoxy)benzamido]-2-methyl-5-oxo-2,5-dihydro-1H-pyrazol-1-yl]acetate]
[1]
  EC50: 140 nM
[2]
  EC50: > 10000 nM
